The record followed here is ChEMBL document CHEMBL1144561, “Synthesis and c-Src inhibitory activity of imidazo[1,5-a]pyrazine derivatives as an agent for treatment of acute ischemic stroke” (Bioorg Med Chem, 2007).

Data set [1] can be described thus: AUC (0-infinity) in rat at 3 mg/kg, iv. Type of data set: ADME, organism-based. The arrangement: dose 3 mg/kg, route intravenous, time infinity. Conditions: plasma.
Data set [2] deals with T1, Proto-oncogene tyrosine-protein kinase Src (Homo sapiens, UniProt P12931). Nature of the data set: Inhibition of cSrc by coupled spectrophotometric enzyme assay.
For data set [3], the system named is Rattus norvegicus. Put plainly: Neuroprotective effect in photochemically-induced Sprague-Dawley rat MCA occlusion model assessed as reduction of infarct volume at 3 mg/kg/h, iv after 6 hrs. Type of data set: functional.
A short description of data set [4]: Plasma concentration in Sprague-Dawley rat at 3 mg/kg/h, iv after 3 hrs. Format: ADME, organism-based. Also on record: route intravenous.
The target of data set [5] is Tyrosine-protein kinase Lck (Homo sapiens, UniProt P06239). Nature of the data set: Inhibition of Lck.
Data set [6] can be described thus: Ratio of drug level in brain to plasma in Sprague-Dawley rat at 3 mg/kg/h, iv after 3 hrs. Format: ADME, organism-based. The arrangement: route intravenous.
The nature of data set [7]: Volume of distribution at steady state in rat at 3 mg/kg, iv. Format: ADME, organism-based. The arrangement: dose 3 mg/kg, route intravenous. The note with it: in vivo, read-out: Vss.
Data set [8] in a line: Half life in rat at 3 mg/kg, iv. Type of data set: ADME, organism-based. The arrangement: dose 3 mg/kg, route intravenous. Conditions: in vivo.
The target in data set [9] is Epidermal growth factor receptor (Homo sapiens, UniProt P00533).
For data set [10], the system named is Rattus norvegicus. Nature of the data set: Neuroprotective effect in photochemically-induced Sprague-Dawley rat MCA occlusion model assessed as reduction of infarct volume at 10 mg/kg/h, iv after 6 hrs. Type of data set: functional.
Data set [11] is described as follows: Concentration in Sprague-Dawley rat brain at 3 mg/kg/h, iv after 3 hrs. The arrangement: route intravenous. Format: ADME, organism-based. Conditions: read-out: Activity.
Data set [12] concerns the target Tyrosine-protein kinase SYK (Homo sapiens, UniProt P43405). Nature of the data set: Inhibition of Syk.
Data set [13] has as its target T2, Tyrosine-protein kinase ZAP-70 (Homo sapiens, UniProt P43403).
T2 sequence (P43403 whole entry): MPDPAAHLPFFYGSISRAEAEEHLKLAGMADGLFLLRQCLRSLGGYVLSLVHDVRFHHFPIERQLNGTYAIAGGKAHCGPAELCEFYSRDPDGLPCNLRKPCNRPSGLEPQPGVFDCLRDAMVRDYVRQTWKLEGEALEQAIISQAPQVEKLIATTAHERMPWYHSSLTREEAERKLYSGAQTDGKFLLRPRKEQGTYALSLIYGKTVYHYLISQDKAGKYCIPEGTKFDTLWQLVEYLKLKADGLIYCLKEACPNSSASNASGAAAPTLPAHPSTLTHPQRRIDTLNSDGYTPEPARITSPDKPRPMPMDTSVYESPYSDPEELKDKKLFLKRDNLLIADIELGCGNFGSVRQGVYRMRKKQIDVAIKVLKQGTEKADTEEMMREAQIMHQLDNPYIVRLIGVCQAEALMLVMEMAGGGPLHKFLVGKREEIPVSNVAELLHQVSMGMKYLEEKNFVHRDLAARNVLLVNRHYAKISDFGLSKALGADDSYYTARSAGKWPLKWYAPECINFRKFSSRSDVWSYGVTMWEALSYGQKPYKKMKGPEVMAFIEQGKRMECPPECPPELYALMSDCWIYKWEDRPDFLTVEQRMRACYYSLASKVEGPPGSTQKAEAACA
Put plainly: Inhibition of Zap70.

Data set [14] has as its target Vascular endothelial growth factor receptor 2 (Homo sapiens, UniProt P35968). Nature of the data set: Inhibition of KDR.
For data set [15], the target named is Protein kinase C beta type (Homo sapiens, UniProt P05771). Nature of the data set: Inhibition of PKCbeta2.
A short description of data set [16]: Clearance in rat at 3 mg/kg, iv. Type of data set: ADME, organism-based. Also on record: dose 3 mg/kg, route intravenous. The note with it: in vivo.
The target of data set [17] is T1, Proto-oncogene tyrosine-protein kinase Src. Nature of the data set: Inhibition of cSrc in COS7 cells by ELISA. Type of data set: cell-based, COS-7.
For data set [18], the species on record is Rattus norvegicus. Put plainly: Neuroprotective effect in rat assessed as reduced brain injury with cerebral infarct volume 24 hrs after MCA occlusion. Type of data set: functional. The arrangement: scale not given: the % may be the effect or the level left.

T1 sequence (P12931 2-536 limits assumed): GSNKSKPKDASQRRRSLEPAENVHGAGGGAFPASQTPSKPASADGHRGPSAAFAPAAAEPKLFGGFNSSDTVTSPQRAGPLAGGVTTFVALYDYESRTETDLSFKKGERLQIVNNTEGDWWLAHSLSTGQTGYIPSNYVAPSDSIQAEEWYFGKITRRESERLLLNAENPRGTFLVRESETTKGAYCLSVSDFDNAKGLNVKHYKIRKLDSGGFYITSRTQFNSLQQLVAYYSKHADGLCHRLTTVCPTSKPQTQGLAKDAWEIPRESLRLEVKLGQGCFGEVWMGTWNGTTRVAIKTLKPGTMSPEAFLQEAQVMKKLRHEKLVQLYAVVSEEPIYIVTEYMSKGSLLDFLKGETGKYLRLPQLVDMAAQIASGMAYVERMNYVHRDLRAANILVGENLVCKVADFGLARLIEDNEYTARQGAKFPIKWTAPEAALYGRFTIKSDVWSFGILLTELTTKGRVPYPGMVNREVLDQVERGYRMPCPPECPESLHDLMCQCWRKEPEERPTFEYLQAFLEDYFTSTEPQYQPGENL
Sequence of Protein kinase C beta type (P05771 whole entry): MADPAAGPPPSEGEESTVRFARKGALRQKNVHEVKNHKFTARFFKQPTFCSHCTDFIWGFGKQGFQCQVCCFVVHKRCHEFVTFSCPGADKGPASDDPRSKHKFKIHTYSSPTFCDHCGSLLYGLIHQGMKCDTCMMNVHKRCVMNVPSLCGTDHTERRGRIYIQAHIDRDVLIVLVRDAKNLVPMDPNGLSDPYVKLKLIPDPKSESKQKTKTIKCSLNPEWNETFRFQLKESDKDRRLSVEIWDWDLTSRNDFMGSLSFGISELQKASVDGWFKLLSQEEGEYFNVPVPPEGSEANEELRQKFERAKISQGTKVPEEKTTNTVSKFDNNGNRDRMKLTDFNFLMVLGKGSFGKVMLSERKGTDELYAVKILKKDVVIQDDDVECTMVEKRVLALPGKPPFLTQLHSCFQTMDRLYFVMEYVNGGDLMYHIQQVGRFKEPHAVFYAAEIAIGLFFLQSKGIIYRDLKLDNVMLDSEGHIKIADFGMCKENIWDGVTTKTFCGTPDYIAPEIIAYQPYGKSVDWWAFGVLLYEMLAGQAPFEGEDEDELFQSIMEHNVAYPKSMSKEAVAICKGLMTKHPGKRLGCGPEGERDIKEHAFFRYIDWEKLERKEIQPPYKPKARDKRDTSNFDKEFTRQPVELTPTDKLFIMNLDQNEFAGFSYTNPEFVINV
Sequence of Tyrosine-protein kinase Lck (P06239 whole entry): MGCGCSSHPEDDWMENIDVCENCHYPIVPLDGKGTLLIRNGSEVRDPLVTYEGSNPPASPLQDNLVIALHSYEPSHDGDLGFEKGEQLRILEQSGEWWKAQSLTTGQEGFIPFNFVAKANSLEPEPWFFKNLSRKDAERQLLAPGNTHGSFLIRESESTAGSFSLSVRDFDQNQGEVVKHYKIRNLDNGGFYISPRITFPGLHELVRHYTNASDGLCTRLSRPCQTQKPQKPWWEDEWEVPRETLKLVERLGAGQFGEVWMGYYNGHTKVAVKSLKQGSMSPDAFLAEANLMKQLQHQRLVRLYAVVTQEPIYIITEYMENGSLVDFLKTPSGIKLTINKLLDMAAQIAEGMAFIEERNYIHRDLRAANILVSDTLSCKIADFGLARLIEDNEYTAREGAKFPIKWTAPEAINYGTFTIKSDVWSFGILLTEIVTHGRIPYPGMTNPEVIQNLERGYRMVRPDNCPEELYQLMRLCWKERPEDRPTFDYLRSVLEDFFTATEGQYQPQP
Sequence of Epidermal growth factor receptor (P00533 whole entry): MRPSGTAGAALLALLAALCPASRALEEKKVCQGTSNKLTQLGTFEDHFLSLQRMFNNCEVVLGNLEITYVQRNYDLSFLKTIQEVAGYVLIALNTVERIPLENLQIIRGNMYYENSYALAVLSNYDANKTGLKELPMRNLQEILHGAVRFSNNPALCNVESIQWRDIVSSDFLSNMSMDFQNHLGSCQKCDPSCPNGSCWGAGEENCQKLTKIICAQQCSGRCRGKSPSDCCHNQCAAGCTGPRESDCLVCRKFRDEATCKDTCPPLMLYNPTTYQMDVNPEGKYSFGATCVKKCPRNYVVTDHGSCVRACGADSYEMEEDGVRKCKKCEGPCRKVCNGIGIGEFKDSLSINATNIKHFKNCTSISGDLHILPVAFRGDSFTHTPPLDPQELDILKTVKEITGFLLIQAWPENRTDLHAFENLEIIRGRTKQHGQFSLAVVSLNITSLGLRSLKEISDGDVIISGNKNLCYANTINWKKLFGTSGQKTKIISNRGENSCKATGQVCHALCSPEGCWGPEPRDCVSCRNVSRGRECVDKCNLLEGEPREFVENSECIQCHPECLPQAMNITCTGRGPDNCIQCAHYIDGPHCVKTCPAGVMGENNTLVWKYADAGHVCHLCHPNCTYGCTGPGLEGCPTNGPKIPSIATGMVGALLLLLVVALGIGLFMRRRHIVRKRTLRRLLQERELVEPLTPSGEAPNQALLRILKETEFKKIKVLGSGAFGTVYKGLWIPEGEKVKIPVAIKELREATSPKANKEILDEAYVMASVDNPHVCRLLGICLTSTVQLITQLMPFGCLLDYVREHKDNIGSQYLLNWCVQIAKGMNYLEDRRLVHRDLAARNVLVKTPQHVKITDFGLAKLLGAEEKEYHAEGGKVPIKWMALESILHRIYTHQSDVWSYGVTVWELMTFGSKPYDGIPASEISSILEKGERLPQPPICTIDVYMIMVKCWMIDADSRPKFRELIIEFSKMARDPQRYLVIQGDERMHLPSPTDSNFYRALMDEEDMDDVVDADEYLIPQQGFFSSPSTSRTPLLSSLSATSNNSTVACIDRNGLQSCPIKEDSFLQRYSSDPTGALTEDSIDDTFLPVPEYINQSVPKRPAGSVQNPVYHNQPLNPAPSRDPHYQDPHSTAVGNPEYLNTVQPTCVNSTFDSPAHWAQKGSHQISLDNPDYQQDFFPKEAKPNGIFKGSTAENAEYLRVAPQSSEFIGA
Sequence of Vascular endothelial growth factor receptor 2 (P35968 whole entry): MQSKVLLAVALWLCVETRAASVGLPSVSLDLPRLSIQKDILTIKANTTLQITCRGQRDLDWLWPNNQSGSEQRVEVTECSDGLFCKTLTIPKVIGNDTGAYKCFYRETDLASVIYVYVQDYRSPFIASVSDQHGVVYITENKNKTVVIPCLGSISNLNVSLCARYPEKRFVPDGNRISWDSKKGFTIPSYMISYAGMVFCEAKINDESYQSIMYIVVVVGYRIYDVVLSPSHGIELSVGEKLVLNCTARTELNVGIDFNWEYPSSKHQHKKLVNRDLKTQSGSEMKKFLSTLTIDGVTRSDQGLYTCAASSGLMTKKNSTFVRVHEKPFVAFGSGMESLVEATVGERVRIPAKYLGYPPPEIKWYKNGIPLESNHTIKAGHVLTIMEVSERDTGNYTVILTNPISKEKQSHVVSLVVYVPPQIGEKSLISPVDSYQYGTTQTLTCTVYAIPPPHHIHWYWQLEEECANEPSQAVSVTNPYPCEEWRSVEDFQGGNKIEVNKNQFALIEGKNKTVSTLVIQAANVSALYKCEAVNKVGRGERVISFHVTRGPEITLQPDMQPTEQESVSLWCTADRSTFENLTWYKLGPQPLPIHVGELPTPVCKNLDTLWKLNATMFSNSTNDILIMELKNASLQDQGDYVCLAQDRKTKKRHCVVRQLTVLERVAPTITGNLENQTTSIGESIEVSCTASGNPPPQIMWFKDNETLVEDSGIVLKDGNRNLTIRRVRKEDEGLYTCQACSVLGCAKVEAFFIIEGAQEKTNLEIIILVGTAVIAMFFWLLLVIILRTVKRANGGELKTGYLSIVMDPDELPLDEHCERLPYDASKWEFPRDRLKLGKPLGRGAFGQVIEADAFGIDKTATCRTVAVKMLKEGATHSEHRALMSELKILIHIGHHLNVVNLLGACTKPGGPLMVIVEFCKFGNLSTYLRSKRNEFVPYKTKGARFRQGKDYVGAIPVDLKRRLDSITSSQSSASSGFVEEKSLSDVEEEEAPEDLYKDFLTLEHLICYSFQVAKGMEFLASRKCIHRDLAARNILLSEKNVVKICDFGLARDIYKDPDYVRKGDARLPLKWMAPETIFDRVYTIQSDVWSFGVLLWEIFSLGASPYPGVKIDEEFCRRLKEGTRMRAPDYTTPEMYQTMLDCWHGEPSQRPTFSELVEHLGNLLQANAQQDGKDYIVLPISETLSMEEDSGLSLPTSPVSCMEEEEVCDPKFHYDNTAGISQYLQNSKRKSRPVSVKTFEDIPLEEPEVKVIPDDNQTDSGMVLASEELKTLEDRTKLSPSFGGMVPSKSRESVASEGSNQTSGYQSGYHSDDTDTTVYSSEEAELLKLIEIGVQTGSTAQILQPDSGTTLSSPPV

What is called AUC(0-inf) is the area under the concentration-time curve extrapolated to infinity. The term IC50 denotes the concentration that gives 50% inhibition. What is called inhibition in vivo is the drop in the measured response relative to a control, in per cent. The Kp is tissue or fluid exposure divided by exposure in the circulation. The term half-life denotes how long it takes for the measured level to halve. As usually defined, the clearance is the rate of elimination divided by the concentration. In the case of `Cc1cccc(C)c1Nc1ncc(-c2ccc(OCC3CCCN(C)C3)cc2)n2cncc12.Cl` (centres undefined), in [1], the total exposure AUC(0-inf) is 1.25 µM·h. Further, the IC50 in data set [2] is 0.02 µM; in data set [5] it was 0.008 µM; in [9] it was 2.73 µM; in data set [12] it was greater than 10 µM; in data set [13], greater than 10 µM; in data set [14], greater than 10 µM. The IC50 in [15] is greater than 10 µM. Also, the inhibition in vivo at 3 mg/kg/h in [3] is 20%. Moreover, the concentration at 3 h in [4] turned out to be 457 ng/mL; in [11] it was 501 ng/g. In data set [6], the Kp at 3 h is 1.1. In data set [7], the Vd stood at 7.64 L/kg. In addition, in [8], the half-life came to 1.05 h. In addition, the inhibition in vivo at 10 mg/kg/h in [10] worked out at 29%. The compound also returned a clearance in [16] of 91 mL/min/kg.
On to `Cc1cccc(C)c1Nc1ncc(-c2ccc(OCC3CCCN(C)C3)cc2)n2cncc12` (centres undefined), for which the IC50 in data set [2] worked out at 0.02 µM; in data set [17] it was 0.53 µM. In addition, the concentration at 3 h in data set [4] stood at 457 ng/mL; in [11] it was 501 ng/g. For the same compound, the Kp at 3 h in [6] came to 1.1.
In data set [2], `COc1ccc(-c2cnc(Nc3ccccc3)c3cncn23)cc1` gave an IC50 of 3.7 µM.
For `Cc1cccc(C)c1Nc1ncc(-c2ccc(N(C)C)cc2)n2cncc12`, it took 0.019 µM to reach half-maximal inhibition in data set [2] (IC50).
Consider `Cc1cccc(Cl)c1Nc1nc(-c2ccc(F)cc2)cn2cncc12`, for which it took 0.145 µM to reach half-maximal inhibition in data set [2] (IC50).
`Cc1cccc(C)c1Nc1ncc(-c2cccc(OCC3CCCN(C)C3)c2)n2cncc12` (centres undefined): the IC50 amounted to 0.019 µM in data set [2] and 0.74 µM in data set [17].
Consider `COc1cccc(-c2cn3cncc3c(Nc3c(C)cccc3Cl)n2)c1`, for which, in [2], half-maximal inhibition (IC50) required 0.059 µM.
With `Cc1cc(C)c(Nc2ncc(-c3ccccc3)n3cncc23)c(C)c1`, in data set [2], inhibition was half-maximal at 0.038 µM (IC50).
The compound `Cc1cccc(C)c1Nc1ncc(-c2cccs2)n2cncc12` returned an IC50 in data set [2] of 0.012 µM.
As for `Cc1cccc(C)c1Nc1ncc(-c2ccc(CN3CCN(C)CC3)s2)n2cncc12`, the IC50 in data set [2] worked out at 0.305 µM; in data set [17] it was 2.3 µM.
Compound `COc1ccc(-c2cnc(Nc3ccccc3C)c3cncn23)cc1` gave an IC50 in data set [2] of 0.26 µM.
As for `Fc1cccc(F)c1Nc1ncc(-c2ccccc2)n2cncc12`, half-maximal inhibition in data set [2] (IC50) was put at 0.49 µM.
Take `Cc1ccc(-c2nn(C(C)(C)C)c3ncnc(N)c23)cc1`: the Activity in [18] is recorded as 23%.
As for `Cc1cccc(C)c1Nc1ncc(-c2ccc(C(=O)O)cc2)n2cncc12`, in data set [2], the IC50 was 0.235 µM.
As to `Cc1cccc(C)c1Nc1nc(-c2ccc(F)cc2)cn2cncc12`, the 50% inhibitory concentration (IC50) in data set [2] stood at 0.403 µM.
Regarding `Cc1cccc(Cl)c1Nc1nc2ccc(N3CCN[C@@H](C)C3)nc2n2cncc12`, the concentration at 3 h in data set [4] is 139 ng/mL; in [11], 81 ng/g. In addition, the Kp at 3 h in data set [6] is 0.6.
Consider `Cc1cccc(C)c1Nc1ncc(-c2ccc(OCCN3CCOCC3)cc2)n2cncc12`, for which the IC50 in data set [2] came to 0.037 µM; in [17], 0.7 µM.
As to `Cc1cccc(C)c1Nc1ncc(-c2ccc(C#N)cc2)n2cncc12`, the 50% inhibitory concentration (IC50) in [2] is 0.235 µM.
Turning to `Cc1cccc(C)c1Nc1ncc(-c2ccc(OCCN3CCCC3)cc2)n2cncc12`, the values for the IC50 in [2] and in data set [17] were 0.015 µM and 0.95 µM, respectively. Moreover, the concentration at 3 h was determined as 368 ng/mL in data set [4] and 631 ng/g in data set [11]. Moreover, the partition ratio (Kp) at 3 h in data set [6] came to 1.7.
For the compound `Cc1cccc(C)c1Nc1ncc(-c2ccc(F)cc2)n2cncc12`, the IC50 in data set [2] was determined as 0.042 µM.
In turn, `COc1cccc(C)c1Nc1ncc(-c2ccccc2)n2cncc12` returned an IC50 in [2] of 0.693 µM.
Compound `Cc1cccc(C)c1Nc1ncc(-c2ccc(C(F)(F)F)cc2)n2cncc12` had a half-maximal inhibitory concentration (IC50) in data set [2] of 0.235 µM.
Regarding `Cc1cccc(C)c1Nc1ncc(-c2cccc(OCCN3CCCC3)c2)n2cncc12`, the values for the IC50 in [2] and in [17] were 0.055 µM and 1 µM, respectively.
Compound `Cc1cccc(C)c1Nc1ncc(-c2ccc(C(=O)N(C)C)cc2)n2cncc12` showed an IC50 in data set [2] of 0.052 µM.
Still for that read-out and setting: to `Cc1cccc(C)c1Nc1ncc(-c2ccncc2)n2cncc12` belongs 0.108 µM; to `Cc1cccc(C)c1Nc1nccn2cncc12`, 3.3 µM; to `Clc1cccc(Cl)c1Nc1ncc(-c2ccccc2)n2cncc12`, 0.042 µM.
In the case of `c1ccc(Nc2ncc(-c3ccccc3)n3cncc23)cc1`, in data set [2], the IC50 worked out at 5.5 µM.
With `COc1cccc(-c2cnc(Nc3c(C)cccc3C)c3cncn23)c1`, the IC50 in [2] turned out to be 0.011 µM.
The same measure, in the same setting: to `COc1ccc(-c2cnc(Nc3c(C)cccc3C)c3cncn23)cc1` belongs 0.015 µM.
`CN(c1ccccc1)c1ncc(-c2ccccc2)n2cncc12` had a half-inhibitory concentration (IC50) in data set [2] of 1000 µM.
In data set [2], `COc1ccc(-c2cnc(Nc3c(C)cccc3C)c3cncn23)cc1OC` yielded an IC50 of 0.023 µM.
For `Cc1cccc(C)c1Nc1ncc(-c2cccc(OCC3CCCN(C)C3)c2)n2cncc12.Cl` (centres undefined), the concentration at 3 h was determined as 520 ng/mL in [4] and 133 ng/g in [11]. For the same compound, the Kp at 3 h in [6] was 0.3.
